Experimental data from patent US8946247B2, “Quinazoline carboxamide azetidines” (Merck Patent GmbH, priority 2010, dated 2015).

Tests used:
[1] = target: T1, P70S6K (T412E mutant) (Homo sapiens, UniProt P23443, T412E); assay: p70S6K Enzyme Assay; format: biochemical; conditions: 24 μM ATP, 90 min at 25° C., Caliper mobility shift
T1 construct: purchased Millipore
Method: p70S6K inhibitor compounds were diluted and plated in 96 well plates. A reaction mixture including the following components were then added to the compound plate to initiate the enzyme reaction; P70S6K (3 nM, T412E mutant, Millipore) was mixed with 24 μM ATP in an assay buffer containing 100 mM Hepes (pH 7.5), 5 mM MgCl2, 1 mM DTT, 0.015% Brij and 1 μM of the substrate peptide FITC-AHA-AKRRRLSSLRA-OH (derived from the S6 ribosomal protein sequence, FITC=fluorescein isothiocyanate, AHA=6-aminohexanoic acid). The reaction was incubated for 90 min at 25° C., before the addition of 10 mM EDTA to stop the reaction. The proportion of substrate and product (phosphorylated) peptide was analysed on a Caliper Life Sciences Lab Chip 3000, using a pressure of −1.4 psi, and upstream and downstream voltages of −3000 and −700 respectively. Product peaks were resolved before substrate peaks on the resulting chromatograms.
To assess the inhibitory potential of the compounds, IC50-values were determined, as shown in Chemical Synthesis section above.

[2] = system: pS6 MDA-MB-468; assay: Cellular Activity Assay (phospho-S6 in MDA-MB-468 cells); format: cell-based; conditions: Homo sapiens, 2 hr compound incubation, percent pS6-positive cells
Method: MDA-MB-468 cells were grown in DMEM containing glutamine supplemented with 10% Fetal Bovine Serum (FBS) and 1× antibiotics. Cells were maintained by splitting 1:3 twice a week.
For the assay, cells were plated the evening before at a density of 4000 cells per well in black polyD lysine coated 384 well plates. Cells were incubated overnight (16 to 20 hours) in growth media. Compounds at an appropriate concentration were added to the wells and incubated for 2 hr. Controls included: i) no primary, ii) rabbit isotype, iii) propidium iodide (red) only and iv) anti-phospho-S6 antibody alone (green only). Cells were then fixed in 4% paraformaldehyde for 15-20 minutes at room temperature, then washed 3×80 ul with PBS.
50 ul 10% normal goat serum (NGS) with 0.2% triton X 100 in PBS were added and incubated for 30 to 60 minutes at room temperature. Anti-phospho-S6 antibody was diluted 1:800 2% with NGS in 0.2% TritonX-100 and 30 ul added to appropriate wells. The wells were incubated overnight at 4 degrees Celsius.
Then the wells were washed with 3×80 uL PBS. The secondary green fluorescence labeled antibody (Alexa Fluor® 488 F(ab′)2 fragment goat Anti-rabbit IgG (H+L)), was diluted 1:1500 in 2% NGS with 0.2% TritonX-100, and 30 ul were added to the appropriate wells which were then incubated in the dark at room temperature for 60 minutes. Then they were washed with 4×80 ul PBS. Propidium iodide (1.5 mM stock) was diluted 1:1000 in PBS, and 50 ul were added to the appropriate wells and incubated for 30 minutes at room temperature in the dark. Propidium iodide was not washed out. Plates were read on the Acumen Explorer.
Red and green cell populations were determined using controls. The number of green cells (pS6) and total number of cells (red) were then counted and the percentage of green cells was calculated. Percent positive cell data was plotted on a log scale against concentration of compounds and IC50 values were calculated from dose response curves.

[3] = target: T2, Akt1 (Homo sapiens, UniProt P31749); assay: AKT/PKB Kinase Assay; format: biochemical; conditions: His-AKT (Full Length), 160 uM ATP, 90 min at 25 C
T2 construct: 0.1 ng/ul His-AKT (Full Length), (Invitrogen, Part #P2999, Lot #641228C); His; purchased Invitrogen P2999
T2 sequence (P31749 whole entry): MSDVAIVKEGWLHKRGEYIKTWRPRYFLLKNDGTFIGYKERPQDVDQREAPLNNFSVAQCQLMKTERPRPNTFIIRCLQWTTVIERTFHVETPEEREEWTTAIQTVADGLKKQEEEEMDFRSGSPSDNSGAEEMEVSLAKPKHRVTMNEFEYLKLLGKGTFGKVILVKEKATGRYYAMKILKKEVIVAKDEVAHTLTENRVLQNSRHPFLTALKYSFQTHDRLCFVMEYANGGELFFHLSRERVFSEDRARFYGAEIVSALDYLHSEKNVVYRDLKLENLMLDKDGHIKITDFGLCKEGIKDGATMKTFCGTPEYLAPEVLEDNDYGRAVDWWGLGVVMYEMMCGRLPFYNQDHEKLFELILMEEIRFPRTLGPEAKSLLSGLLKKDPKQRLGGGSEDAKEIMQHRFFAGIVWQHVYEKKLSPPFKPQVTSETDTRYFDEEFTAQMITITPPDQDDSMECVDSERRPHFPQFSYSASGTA
Method: In order to measure AKT inhibition in the Caliper Life Sciences LC3000, a TTP Mosquito liquid handling instrument was used to place 125 nl of the appropriate concentration of inhibitor in 100% DMSO (for a dose response curve calculation) into each well of a 384-well plate. To this reaction components were added to a final volume of 12.5 ul: • 0.1 ng/ul His-AKT (Full Length), (Invitrogen, Part #P2999, Lot #641228C) • 160 uM ATP (Fluke, 02055) • 1 mM DTT (Sigma, D0632) • 1 mM MgCl2 (Sigma, M1028) • 1 uM substrate peptide (sequence FITC-AHA-GRPRTSSFAEG-NH2), synthesized by Tufts Peptide Synthesis service. • 100 mM HEPES pH 7.5 (Calbiochem, 391338) • 0.015% Brij-35 (Sigma, B4184)
(§1) The reaction was incubated for 90 min at 25 C, and then stopped by the addition of 70 ul of Stop buffer (100 mM HEPES pH 7.5, 0.015% Brij-35, 10 mM EDTA (Sigma, E7889)).
The plate was read on a Caliper LC 3000 in an Off-Chip mobility shift assay format, using the following parameters for a 12-sipper chip: screening pressure −2.3 psi, upstream voltage −500, and downstream voltage −3000.
These conditions cause unphosphorylated substrate and phosphorylated product peptide to resolve as separate peaks allowing direct measurement of percentage of conversion of substrate to product. The percent conversion was plotted against concentration of inhibitor to produce a sigmoidal dose response curve, from which an IC50 was calculated.

[4] = target: T3, Aurora B (Homo sapiens, UniProt Q96GD4); assay: Aurora B Kinase Assay; format: biochemical; conditions: GST-Aurora B (1-344), 10 uM ATP, 90 min at 25 C
T3 construct: GST-Aurora B (1-344 amino acids); GST (N); purchased Carna Biosciences 05-102
T3 sequence (Q96GD4 whole entry, the tested form may be a part): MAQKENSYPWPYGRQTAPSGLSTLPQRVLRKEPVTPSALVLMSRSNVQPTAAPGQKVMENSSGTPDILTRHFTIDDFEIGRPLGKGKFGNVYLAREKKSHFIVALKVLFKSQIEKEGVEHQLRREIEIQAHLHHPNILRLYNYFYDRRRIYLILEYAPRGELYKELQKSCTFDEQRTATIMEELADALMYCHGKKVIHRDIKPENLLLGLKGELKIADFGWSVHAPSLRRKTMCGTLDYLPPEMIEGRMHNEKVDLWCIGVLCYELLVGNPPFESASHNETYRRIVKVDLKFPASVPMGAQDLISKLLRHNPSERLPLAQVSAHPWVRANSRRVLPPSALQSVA
T3 sequence (Q9NQS7 803-918 partner limits assumed): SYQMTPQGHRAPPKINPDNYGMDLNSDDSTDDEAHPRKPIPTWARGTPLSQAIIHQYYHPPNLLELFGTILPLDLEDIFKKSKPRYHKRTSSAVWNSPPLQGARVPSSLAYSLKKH
Method: To measure inhibitor activity of Aurora B inhibitors in the Caliper Life Sciences LC3000, a TTP Mosquito liquid handling instrument was used to place 0.25 ul of the appropriate concentration of inhibitor in 100% DMSO (for a dose response curve calculation) into each well of a 384-well plate. To this reaction components was added to a final volume of 25 ul: • 0.1 ng/ul GST-Aurora B (1-344 amino acids), (Carna Biosciences 05-102. N-terminal GST fusion with His tagged INCEP, accession number Q96GD4). • 10 uM ATP (Fluka, 02055) • 1 mM DTT (Sigma, D0632) • 1 mM MgCl2 (Sigma, M1028) • 1 uM substrate peptide (sequence FITC-LRRASLG-(CONH2), synthesized by Tufts Peptide Synthesis service. • 100 mM HEPES pH 7.5 (Calbiochem, 391338) • 0.015% Brij-35 (Sigma, B4184)
as §1
The plate was read on a Caliper LC 3000 in an Off-Chip mobility shift assay format, using the following parameters for a 12-sipper chip: screening pressure −1.8 psi, upstream voltage −2700, downstream voltage −1000. These conditions caused unphosphorylated substrate and phosphorylated product peptide to resolve as separate peaks allowing direct measurement of percentage of conversion of substrate to product. The percent conversion was plotted against concentration of inhibitor to produce a sigmoidal dose response curve, from which an IC50 was calculated using XLFit for Microsoft Excel.

T1 sequence (P23443 1-421 T412E limits assumed): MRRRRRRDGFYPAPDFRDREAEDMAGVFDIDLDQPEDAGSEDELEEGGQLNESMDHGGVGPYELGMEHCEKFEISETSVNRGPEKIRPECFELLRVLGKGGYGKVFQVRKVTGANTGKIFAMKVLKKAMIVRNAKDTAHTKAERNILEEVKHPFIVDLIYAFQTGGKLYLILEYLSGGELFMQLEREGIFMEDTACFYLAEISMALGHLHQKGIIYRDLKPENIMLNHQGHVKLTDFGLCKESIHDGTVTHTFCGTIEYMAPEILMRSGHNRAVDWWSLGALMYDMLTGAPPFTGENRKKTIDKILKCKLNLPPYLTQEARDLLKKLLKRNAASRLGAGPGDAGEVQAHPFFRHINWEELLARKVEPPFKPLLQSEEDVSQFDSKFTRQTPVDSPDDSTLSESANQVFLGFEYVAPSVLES

Structure (SMILES): NC(=O)c1cccc2c(N[C@H](CN3CCC3)c3ccc(F)cc3Cl)ncnc12 [Example 24, 4-[(S)-2-Azetidin-1-yl-1-(2-chloro-4-fluoro-phenyl)-ethylamino]-quinazoline-8-carboxylic acid amide]
- IC50 [1]: 8.7 nM
- IC50 [2]: 1030 nM
- IC50 [3]: 77 nM
- IC50 [4]: 107 nM

Structure (SMILES): NC(=O)c1cccc2c(N[C@H](CN3CCC3)c3cc(F)ccc3Cl)ncnc12 [Example 25, 4-[(S)-2-Azetidin-1-yl-1-(2-chloro-5-fluoro-phenyl)-ethylamino]-quinazoline-8-carboxylic acid amide]
- IC50 [1]: 3.1 nM
- IC50 [2]: 486 nM
- IC50 [3]: 370 nM
- IC50 [4]: 259 nM

Structure (SMILES): NC(=O)c1cccc2c(N[C@H](CN3CCC3)c3cc(F)ccc3F)ncnc12 [Example 26, 4-[(S)-2-Azetidin-1-yl-1-(2,5-di-fluoro-phenyl)-ethylamino]-quinazoline-8-carboxylic acid amide]
- IC50 [1]: 5.3 nM
- IC50 [2]: 359 nM
- IC50 [3]: 98 nM
- IC50 [4]: 230 nM

Structure (SMILES): NC(=O)c1cccc2c(N[C@H](CN3CCC3)c3cccc(C(F)(F)F)c3)ncnc12 [Example 27, 4-[(S)-2-Azetidin-1-yl-1-(3-trifluoromethyl-phenyl)-ethylamino]-quinazoline-8-carboxylic acid amide]
- IC50 [1]: 1.4 nM
- IC50 [2]: 56 nM
- IC50 [3]: 5.6 nM
- IC50 [4]: 180 nM

Structure (SMILES): NC(=O)c1cccc2c(N[C@H](CN3CCC3)c3ccc(OC(F)(F)F)cc3)ncnc12 [Example 30, 4-[(S)-2-Azetidin-1-yl-1-(4-trifluoromethoxy-phenyl)-ethylamino]-quinazoline-8-carboxylic acid amide]
- IC50 [1]: 1.7 nM
- IC50 [2]: 199 nM
- IC50 [3]: 187 nM
- IC50 [4]: 370 nM

Structure (SMILES): NC(=O)c1cccc2c(N[C@H](CN3CCC3)c3ccc(F)c(C(F)(F)F)c3)ncnc12 [Example 31, 4-[(S)-2-Azetidin-1-yl-1-(4-fluoro-3-trifluoromethyl-phenyl)-ethylamino]-quinazoline-8-carboxylic acid amide]
- IC50 [1]: 2.4 nM
- IC50 [2]: 28 nM
- IC50 [3]: 7.3 nM
- IC50 [4]: 285 nM

Structure (SMILES): NC(=O)c1cccc2c(N[C@H](CN3CCC3)c3cc(F)c(F)c(F)c3)ncnc12 [Example 37, 4-[(S)-2-Azetidin-1-yl-1-(3,4,5-trifluorophenyl)-ethylamino]-quinazoline-8-carboxylic acid amide]
- IC50 [1]: 2.8 nM
- IC50 [2]: 130 nM
- IC50 [3]: 25 nM
- IC50 [4]: 200 nM

Structure (SMILES): COc1c(F)cc([C@@H](CN2CCC2)Nc2ncnc3c(C(N)=O)cccc23)cc1F [Example 38, 4-[(S)-2-Azetidin-1-yl-1-(3,5-difluoro-4-methoxyphenyl)-ethylamino]-quinazoline-8-carboxylic acid amide]
- IC50 [1]: 1.8 nM
- IC50 [2]: 113 nM
- IC50 [3]: 140 nM
- IC50 [4]: 280 nM

Structure (SMILES): N#Cc1cc([C@@H](CN2CCC2)Nc2ncnc3c(C(N)=O)cccc23)ccc1F [Example 39, 4-[(S)-2-Azetidin-1-yl-1-(3-cyano-4-fluorophenyl)-ethylamino]-quinazoline-8-carboxylic acid amide]
- IC50 [1]: 3.3 nM
- IC50 [2]: 246 nM
- IC50 [3]: 83 nM
- IC50 [4]: 650 nM

Structure (SMILES): Cc1cc([C@@H](CN2CCC2)Nc2ncnc3c(C(N)=O)cccc23)ccc1F [Example 42, 4-[(S)-2-Azetidin-1-yl-1-(4-fluoro-3-methyl-phenyl)-ethylamino]-quinazoline-8-carboxylic acid amide]
- IC50 [1]: 1.6 nM
- IC50 [2]: 32 nM
- IC50 [3]: 23 nM
- IC50 [4]: 120 nM

Structure (SMILES): COc1cc([C@@H](CN2CCC2)Nc2ncnc3c(C(N)=O)cccc23)ccc1F [Example 43, 4-[(S)-2-Azetidin-1-yl-1-(4-fluoro-3-methoxy-phenyl)-ethylamino]-quinazoline-8-carboxylic acid amide]
- IC50 [1]: 4 nM
- IC50 [2]: 484 nM
- IC50 [3]: 21 nM
- IC50 [4]: 69 nM

Structure (SMILES): NC(=O)c1cccc2c(N[C@H](CN3CCC3)c3ccc(F)c(C(F)F)c3)ncnc12 [Example 44, 4-[(S)-2-Azetidin-1-yl-1-(3-difluoromethyl-4-fluoro-phenyl)-ethylamino]-quinazoline-8-carboxylic acid amide]
- IC50 [1]: 1.7 nM
- IC50 [2]: 41 nM
- IC50 [3]: 7.3 nM
- IC50 [4]: 75 nM

Structure (SMILES): NC(=O)c1cc(F)cc2c(N[C@H](CN3CCC3)c3ccc(F)c(C(F)(F)F)c3)ncnc12 [Example 45, 4-[(S)-2-Azetidin-1-yl-1-(4-fluoro-3-trifluoromethyl-phenyl)-ethylamino]-6-fluoro-quinazoline-8-carboxylic acid amide]
- IC50 [1]: 1.5 nM
- IC50 [2]: 33 nM
- IC50 [3]: 5.9 nM
- IC50 [4]: 290 nM

Structure (SMILES): CC1CN(C[C@@H](Nc2ncnc3c(C(N)=O)cccc23)c2ccc(F)c(C(F)(F)F)c2)C1 [Example 46, 4-[(S)-1-(4-Fluoro-3-trifluoromethyl-phenyl)-2-(3-methyl-azetidin-1-yl)-ethylamino]-quinazoline-8-carboxylic acid amide]
- IC50 [1]: 4.9 nM
- IC50 [2]: 427 nM
- IC50 [3]: 7.5 nM
- IC50 [4]: 390 nM

Structure (SMILES): COc1cc(C(N)=O)c2ncnc(N[C@H](CN3CCC3)c3ccc(F)c(C(F)(F)F)c3)c2c1 [Example 47, 4-[(S)-2-Azetidin-1-yl-1-(4-fluoro-3-trifluoromethyl-phenyl)-ethylamino]-6-methoxy-quinazoline-8-carboxylic acid amide]
- IC50 [1]: 2.2 nM
- IC50 [2]: 27 nM
- IC50 [3]: 1.5 nM
- IC50 [4]: 200 nM
